Test results: US20230210113A1, “FUNGICIDAL COMPOSITIONS” (SYNGENTA CROP PROTECTION AG, priority 2020, published 2023)

Key:
Botrytis cinerea = experiment: Liquid culture test in well plates, Botrytis cinerea (gray mould), growth inhibition; format: cell-based; settings: 72 hours, 24° C.
Method: (§1) Mycelia fragments or conidia suspensions of a fungus, prepared either freshly from liquid cultures of the fungus or from cryogenic storage, are directly mixed into nutrient broth. DMSO solutions of the test compound (max. 10 mg/mL) is diluted with 0.025% Tween20 by factor 50 and 10 µL of this solution is pipetted into a microtiter plate (96-well format). […] The test plates are incubated in the dark at 24° C. and 96% relative humidity (rh). The inhibition of fungal growth is determined photometrically and visually after 3 - 7 days, depending on the pathosystem, and percent antifungal activity relative to the untreated check is calculated.
Conidia of the fungus from cryogenic storage were directly mixed into nutrient broth (PDB potato dextrose broth). After placing a DMSO solution of the test compositions into a microtiter plate (96-well format), the nutrient broth containing the fungal spores was added.

Alternaria solani = experiment: Liquid culture test in well plates, Alternaria solani (early blight of tomato/potato), growth inhibition; format: cell-based; settings: 48 hours, 24° C.
Method: as §1
Conidia of the fungus from cryogenic storage were directly mixed into nutrient broth (PDB potato dextrose broth). After placing a DMSO solution of the test compositions into a microtiter plate (96-well format) the nutrient broth containing the fungal spores was added.

Molecule | (A) inhibition (%) (Botrytis cinerea; Aureobasidin A 0.0012 ppm alone) | (A) inhibition (%) (Botrytis cinerea; Aureobasidin A 0.0025 ppm alone) | (A) inhibition (%) (Botrytis cinerea; Aureobasidin A 0.0050 ppm alone) | (A) inhibition (%) (Botrytis cinerea; Aureobasidin A 0.0100 ppm alone) | (A) inhibition (%) (Botrytis cinerea; Aureobasidin A 0.0200 ppm alone) | (A) inhibition (%) (Alternaria solani; Aureobasidin A 0.02 ppm alone) | inhibition at 0.25 ppm (Botrytis cinerea; Botrytis cinerea, Folpet 0.25 ppm alone, read-out: (B) inhibition (%)) [%] | inhibition at 0.5 ppm (Botrytis cinerea; Botrytis cinerea, Folpet 0.50 ppm alone, read-out: (B) inhibition (%)) [%] | inhibition at 1 ppm (Botrytis cinerea; Botrytis cinerea, Folpet 1.00 ppm alone, read-out: (B) inhibition (%)) [%] | inhibition at 0.25 ppm (Alternaria solani; Alternaria solani, Folpet 0.25 ppm alone, read-out: (B) inhibition (%)) [%]
Aureobasidin A | 6 | 6 | 4 | 34 | 41 | 24 |  |  |  | 
O=C1c2ccccc2C(=O)N1SC(Cl)(Cl)Cl [Folpet, folpet, reference compound] |  |  |  |  |  |  | 21 | 44 | 78 | 3
